Values quoted from earlier work in patent US20220313614A1, “EN[…] […] AND METHODS OF PREPARATION THEREOF” (Altria Client Services LLC, priority 2021, published 2022).

Conditions: free base (non-protonated)

CN1CCCC1c1cccnc1 (stereo not shown) [Free-base nicotine, 3-(1-methyl-2-pyrrolidinyl) pyridine]
pKa value: about 8
